We go through 21 compounds from patent publication US5200415A, “Pyrazolo[1,5-a]pyridine-3-carboxylic acid derivatives and their pharmaceutical use” (Asahi Kasei Kogyo Kabushiki Kaisha, priority 1990, dated 1993).

What is called IC50 is the midpoint of a concentration-inhibition curve.

Like-named read-outs stand apart in the source and are kept apart here.

The target of one assay is T1, 5-HT3 receptor (Rattus norvegicus, UniProt P35563).
T1 sequence (P35563 24-483): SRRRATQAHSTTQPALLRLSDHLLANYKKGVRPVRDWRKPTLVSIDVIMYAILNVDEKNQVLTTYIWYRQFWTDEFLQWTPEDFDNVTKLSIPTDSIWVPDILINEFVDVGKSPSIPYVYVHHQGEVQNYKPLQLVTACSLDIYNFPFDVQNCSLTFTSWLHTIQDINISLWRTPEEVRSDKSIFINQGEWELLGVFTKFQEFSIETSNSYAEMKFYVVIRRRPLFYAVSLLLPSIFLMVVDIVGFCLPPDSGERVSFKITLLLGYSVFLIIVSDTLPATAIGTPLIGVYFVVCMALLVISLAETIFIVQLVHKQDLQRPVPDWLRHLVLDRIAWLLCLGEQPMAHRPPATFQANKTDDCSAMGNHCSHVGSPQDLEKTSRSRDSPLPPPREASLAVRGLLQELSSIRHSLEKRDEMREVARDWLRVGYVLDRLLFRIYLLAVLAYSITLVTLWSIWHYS
The experiment in a line: 5-HT3 receptor binding experiment (3H-quipazine binding assay, rat cerebral cortical membrane fraction). As to conditions: for inhibition at 0.01 µM / inhibition at 0.001 µM: read-out: Binding inhibitory rate.

The test system of another assay is female beagles. Kind of assay: Antiemetic effects against cisplatin-induced vomiting. The class given is in vivo, female beagles (dog). Particulars: for Latency of the first vomit / Number of vomits: test compound 0.1 mg/kg i.v. 75 minutes after cisplatin 3 mg/kg i.v.; for Number of vomits: 4 hours observation; for Vomiting after cisplatin (result in words): two beagles, test compound 0.1 mg/kg i.v., cisplatin 3 mg/kg i.v. The text has this: Using four 9-13 month-old female beagles having a body weight of 7.5-9.6 Kg (furnished by Toyo Research Animal Inc.), the antiemetic effects of certain compounds of the present invention were investigated.
As test compounds, the compounds obtained in Examples 8 and 9, respectively, were individually weighed and dissolved in 0.01N hydrochloric acid. The resultant solutions were neutralized to about pH 7 with 0.01N NaOH to provide aqueous solutions for administration. Cisplatin ("Briplatin Injection", product of Bristol-Myers Co.) was used as an emetic.
To see the emetic effects of cisplatin to each animal, vomiting after the administration of cisplatin was first observed (control group). Next, seven weeks later, each group consisting of two beagles was intravenously administered with 0.1 mg/kg (0.2 ml/kg) of the compound of Example 8 or 9 upon an elapsed time of 75 minutes after the administration of cisplatin, and the group administered with the compound of Example 8 and the group administered with the compound of Example 9 were both observed for vomit. Cisplatin was intravenously administered at the dosage of 3 mg/kg (in the volume of 6 ml/kg) and the administration rate of 10 ml/min.
The laboratory animals were fasted for about 24 hours prior to administration of cisplatin and, one hour after the administration of cisplatin, were fed. Vomit was determined depending on whether vomitus was discharged out of the mouth. With respect to the number of vomits and their latency, observation was continued for 4 hours after the administration of cisplatin.
Based on the observation, the latency of the first vomit of and the number of vomits of each laboratory animal after the administration of cisplatin are shown in Table 3-A and Table 3-B.

In the case of `Cc1nn2ccccc2c1C(=O)NC1CN2CCC1CC2` (stereo not drawn) [Example 5, 2-methyl-N-(1-azabicyclo[2.2.2]oct-3-yl)-3-pyrazolo[1,5-a]pyridinecarboxamide], at 5-HT3 receptor, the IC50 was 18.9 nM and the inhibition at 0.01 µM came to 50%. The compound `Cc1cccc2c(C(=O)N[C@H]3CN4CCC3CC4)cnn12` [Example 11, (R)-(+)-N-(1-azabicyclo[2.2.2]oct-3-yl)-7-methylpyrazolo[1,5-a]pyridine-3-carboxamide] had an IC50 on 5-HT3 receptor of 44.9 nM. Turning to `Cc1ccn2ncc(C(=O)NC3CN4CCC3CC4)c2c1` (stereo not drawn) [Example 2, 5-methyl-N-(1-azabicyclo[2.2.2]oct-3-yl)-3-pyrazolo[1,5-a]pyridinecarboxamide], at 5-HT3 receptor, the IC50 is 43.2 nM and the inhibition at 0.01 µM stood at 31%. As for `CN1[C@@H]2CC[C@H]1C[C@@H](OC(=O)c1cnn3ccccc13)C2` [Example 6, endo-8-methyl-8-azabicyclo[3.2.1]-oct-3-yl pyrazolo[1,5-a]pyridine-3-carboxylate], at 5-HT3 receptor, the IC50 is 16.5 nM, the inhibition at 0.001 µM amounted to 9% and the inhibition at 0.01 µM stood at 37%. With `Cc1cccc2c(C(=O)O)cnn12` [Control* 6, 7Methylpyrazolo[1,5a]pyridine3-carboxylic acid, reference compound], the IC50 at 5-HT3 receptor is greater than 10000 nM. `Cc1nn2c(C)cccc2c1C(=O)O` [Control* 7, 2,7Dimethylpyrazolo[1,5a]pyridine3-carboxylic acid, reference compound] came in with an IC50 on 5-HT3 receptor greater than 10000 nM. On 5-HT3 receptor, `Cc1cccn2ncc(C(=O)O)c12` [Control* 3, 4Methylpyrazolo[1,5a]pyridine3-carboxylic acid, reference compound] returned an IC50 greater than 10000 nM.

As for `Cc1cccc2c(C(=O)NC3CN4CCC3CC4)cnn12` (stereo not drawn) [Example 4, 7-methyl-N-(1-azabicyclo[2.2.2]oct-3-yl)-3-pyrazolo[1,5-a]pyridinecarboxamide], on 5-HT3 receptor, the IC50 was 7.2 nM and the inhibition at 0.01 µM was found to be 82%. Consider `Cc1nn2c(C)cccc2c1C(=O)NC1CN2CCC1CC2` (stereo not drawn) [Example 19], for which the IC50 at 5-HT3 receptor is 5.2 nM.

In the case of `Cc1cccc2c(C(=O)N[C@H]3C[C@H]4CCC[C@@H](C3)N4C)cnn12` [Example 9, endo-9-methyl-9-azabicyclo[3.3.1]-non-3-yl 7-methyl-pyrazolo[1,5-a]pyridine-3-carboxamide], the IC50 at 5-HT3 receptor (read-out: IC50 value) was 53.7 nM. In the assay with female beagles (Dog No. 3), the “Latency of the first vomit” value came to 132 min and the Number of vomits came to 12 times. Also, the “Latency of the first vomit” value in the assay on female beagles (Dog No. 4) turned out to be 173 min. The “Vomiting after cisplatin (result in words)” value with female beagles is on record as “number of vomits therefore decreased in one case”. With `Cc1cccc2c(C(=O)O[C@H]3C[C@H]4CC[C@@H](C3)N4C)cnn12` [Example 7, endo-8-methyl-8-azabicyclo[3.2.1]-oct-3-yl 7-methylpyrazolo[1,5-a]pyridine-3-carboxylate], on 5-HT3 receptor, the IC50 worked out at 1 nM, the inhibition at 0.001 µM came out at 43% and the inhibition at 0.01 µM came out at 77%.

The compound `O=C(O)c1cnn2ccccc12` [Control* 1, Pyrazolo[1,5a]pyridine3-carboxylic acid, reference compound] yielded an IC50 on 5-HT3 receptor greater than 10000 nM.

On 5-HT3 receptor, `Cc1ccc2c(C(=O)O)cnn2c1` [Control* 5, 6Methylpyrazolo[1,5a]pyridine3-carboxylic acid, reference compound] displayed an IC50 greater than 10000 nM.

Take `Cc1cccn2ncc(C(=O)O[C@H]3C[C@H]4CC[C@@H](C3)N4C)c12` [Example 16, endo-8-methyl-8-azabicyclo[3.2.1]-oct-3-yl 4-methyl-pyrazolo[1,5-a]pyridine-3-carboxylate]: on 5-HT3 receptor, the IC50 is 3.5 nM. On to `O=C(NC1CN2CCC1CC2)c1cnn2ccccc12` (stereo not drawn) [Example 1, N-(1-azabicyclo[2.2.2]oct-3-yl)-3-pyrazolo[1,5-a]pyridinecarboxamide], for which, on 5-HT3 receptor, the IC50 came to 41.1 nM and the inhibition at 0.01 µM was 50%.

`Cc1ccn2ncc(C(=O)O[C@H]3C[C@H]4CC[C@@H](C3)N4C)c2c1` [Example 17, endo-8-methyl-8-azabicyclo[3.2.1]-oct-3-yl 5-methylpyrazolo[1,5-a]pyridine-3-carboxylate]: the IC50 at 5-HT3 receptor is 25.8 nM. At 5-HT3 receptor, `Cc1cccc2c(C(=O)N[C@@H]3CN4CCC3CC4)cnn12` [Example 10, (S)-(-)-N-(1-azabicyclo[2.2.2]oct-3-yl)-7-methylpyrazolo[1,5-a]pyridine-3-carboxamide] displayed an IC50 of 0.28 nM. Regarding `Cc1nn2ccccc2c1C(=O)O` [Control* 2, 2Methylpyrazolo[1,5a]pyridine3-carboxylic acid, reference compound], the IC50 on 5-HT3 receptor is greater than 10000 nM. Turning to `Cc1cccc2c(C(=O)N[C@H]3C[C@H]4CC[C@@H](C3)N4C)cnn12` [Example 8, endo-8-methyl-8-azabicyclo[3.2.1]-oct-3-yl 7-methyl-pyrazolo[1,5-a]pyridine-3-carboxamide], the concentration for half-maximal inhibition (IC50) at 5-HT3 receptor is 19.1 nM. Also, the Number of vomits in the assay with female beagles (Dog No. 1) and with female beagles (Dog No. 2) was 0 times in each case. The “Vomiting after cisplatin (result in words)” value in the assay with female beagles is listed as “No vomit”. Turning to `Cc1ccn2ncc(C(=O)O)c2c1` [Control* 4, 5Methylpyrazolo[1,5a]pyridine3-carboxylic acid, reference compound], the IC50 on 5-HT3 receptor is greater than 10000 nM. For `Cc1nn2ccccc2c1C(=O)O[C@H]1C[C@H]2CC[C@@H](C1)N2C` [Example 15, endo-8-methyl-8-azabicyclo[3.2.1]-oct-3-yl 2-methyl-pyrazolo[1,5-a]pyridine-3-carboxylate], on 5-HT3 receptor, the IC50 came out at 2.7 nM.
